The source made the active and inactive calls. The rule behind the calls is not given here.
How the values were obtained:
[1] = biological target: T1, Muscarinic acetylcholine receptor M4 (Homo sapiens) (UniProt P08173); test: Positive allosteric modulation of human M4 receptor/Gqi5 in presence of EC20 acetylcholine by calcium mobilization assay relative to acetylcholine; type: functional; conditions: filed as positive allosteric modulator
T1 sequence (whole entry): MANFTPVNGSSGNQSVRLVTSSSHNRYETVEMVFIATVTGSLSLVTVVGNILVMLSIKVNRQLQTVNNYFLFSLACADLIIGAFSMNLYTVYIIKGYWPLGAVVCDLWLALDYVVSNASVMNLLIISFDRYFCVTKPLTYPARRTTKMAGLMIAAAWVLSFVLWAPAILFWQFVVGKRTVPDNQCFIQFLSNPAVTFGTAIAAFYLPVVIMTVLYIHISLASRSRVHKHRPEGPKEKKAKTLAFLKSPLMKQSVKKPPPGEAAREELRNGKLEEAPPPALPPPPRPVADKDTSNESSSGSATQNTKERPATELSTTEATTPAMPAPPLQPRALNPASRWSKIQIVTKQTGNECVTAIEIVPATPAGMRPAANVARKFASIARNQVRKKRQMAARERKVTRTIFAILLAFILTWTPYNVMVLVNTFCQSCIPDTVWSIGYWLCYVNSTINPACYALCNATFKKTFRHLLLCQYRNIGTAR

[2] = Brain to plasma permeability coefficient, Kp in Sprague-Dawley rat at 0.1 to 0.2 mg/kg, iv measured after 0.25 hrs; type: ADME, organism-based; conditions: dose 0.1-0.2 mg/kg
[3] = biological target: T2, Muscarinic acetylcholine receptor M2 (Homo sapiens, UniProt P08172); test: Positive allosteric modulation of human M2 receptor/Gqi5 in presence of EC20 acetylcholine by calcium mobilization assay relative to acetylcholine; conditions: read-out: %max
T2 sequence (P08172 whole entry): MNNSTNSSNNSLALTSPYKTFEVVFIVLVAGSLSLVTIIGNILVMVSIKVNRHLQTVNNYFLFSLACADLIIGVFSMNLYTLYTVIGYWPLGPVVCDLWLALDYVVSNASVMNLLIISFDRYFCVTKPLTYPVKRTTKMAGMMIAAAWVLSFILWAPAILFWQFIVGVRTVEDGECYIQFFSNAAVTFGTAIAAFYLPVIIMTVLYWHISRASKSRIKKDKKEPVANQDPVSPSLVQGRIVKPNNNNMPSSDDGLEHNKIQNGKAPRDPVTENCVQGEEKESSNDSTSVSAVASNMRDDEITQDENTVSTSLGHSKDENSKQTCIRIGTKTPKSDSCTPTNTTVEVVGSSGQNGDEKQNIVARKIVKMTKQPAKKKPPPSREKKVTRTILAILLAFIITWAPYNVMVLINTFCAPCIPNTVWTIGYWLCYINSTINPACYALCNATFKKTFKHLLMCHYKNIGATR

[4] = biological target: T2, Muscarinic acetylcholine receptor M2; test: Positive allosteric modulation of human M2 receptor/Gqi5 in presence of EC20 acetylcholine by calcium mobilization assay
[5] = biological target: Muscarinic acetylcholine receptor M3 (Homo sapiens, UniProt P20309); test: Positive allosteric modulation of human M3 receptor
[6] = Fraction unbound in human plasma; type: ADME, cell-free
[7] = biological target: T3, Muscarinic acetylcholine receptor M1 (Homo sapiens) (UniProt P11229); test: Positive allosteric modulation of human M1 receptor
T3 sequence (whole entry): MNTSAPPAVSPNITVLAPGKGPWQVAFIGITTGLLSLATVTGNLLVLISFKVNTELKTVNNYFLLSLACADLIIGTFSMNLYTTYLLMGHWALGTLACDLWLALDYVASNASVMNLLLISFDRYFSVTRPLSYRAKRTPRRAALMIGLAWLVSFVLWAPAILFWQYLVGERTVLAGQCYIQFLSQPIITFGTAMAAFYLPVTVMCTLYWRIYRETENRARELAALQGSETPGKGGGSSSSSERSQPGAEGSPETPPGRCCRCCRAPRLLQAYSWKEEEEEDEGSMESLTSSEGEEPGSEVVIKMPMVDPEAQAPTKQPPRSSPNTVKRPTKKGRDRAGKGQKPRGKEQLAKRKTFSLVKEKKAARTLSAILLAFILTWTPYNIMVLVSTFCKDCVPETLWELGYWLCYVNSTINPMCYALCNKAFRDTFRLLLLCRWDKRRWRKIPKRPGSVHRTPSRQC

[8] = biological target: T4, Muscarinic acetylcholine receptor M4 (Homo sapiens, UniProt P08173); test: Positive allosteric modulation of human M4 receptor/Gqi5 in presence of EC20 acetylcholine by calcium mobilization assay; type: functional
T4 sequence (P08173 whole entry): T1 sequence (whole entry)

[9] = biological target: T5, Muscarinic acetylcholine receptor M5 (Homo sapiens) (UniProt P08912); test: Positive allosteric modulation of human M5 receptor
T5 sequence (whole entry): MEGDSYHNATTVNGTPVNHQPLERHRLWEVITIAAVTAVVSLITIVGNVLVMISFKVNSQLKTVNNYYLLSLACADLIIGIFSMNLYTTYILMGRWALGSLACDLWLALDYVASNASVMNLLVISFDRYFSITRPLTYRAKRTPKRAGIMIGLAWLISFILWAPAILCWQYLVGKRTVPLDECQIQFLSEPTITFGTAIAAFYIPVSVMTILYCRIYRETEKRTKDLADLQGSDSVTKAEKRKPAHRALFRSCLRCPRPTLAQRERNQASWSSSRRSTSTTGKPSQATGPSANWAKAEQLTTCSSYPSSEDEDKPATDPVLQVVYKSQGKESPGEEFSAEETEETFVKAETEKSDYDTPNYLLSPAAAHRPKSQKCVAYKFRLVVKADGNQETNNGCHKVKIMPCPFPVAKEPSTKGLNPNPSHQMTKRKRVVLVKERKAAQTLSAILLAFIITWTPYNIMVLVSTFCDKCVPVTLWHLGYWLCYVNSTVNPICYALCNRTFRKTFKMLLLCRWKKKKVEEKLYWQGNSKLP

[10] = Hepatic clearance in rat; type: ADME; conditions: in vivo
[11] = Fraction unbound in rat brain; type: ADME, tissue-based
[12] = Fraction unbound in rat plasma; type: ADME, cell-free
P-gp = test: Substrate activity at human P-gp expressed in MDCK-MDR1 cells assessed as efflux ratio; type: ADME, cell-based
[13] = Hepatic clearance in human; type: ADME
[14] = Unbound brain-to-plasma concentration ratio in Sprague-Dawley rat at 0.1 to 0.2 mg/kg, iv measured after 0.25 hrs; type: ADME, organism-based; conditions: dose 0.1-0.2 mg/kg, read-out: K(p,uu,brain)

Chain of Muscarinic acetylcholine receptor M3 (P20309 whole entry, looked up): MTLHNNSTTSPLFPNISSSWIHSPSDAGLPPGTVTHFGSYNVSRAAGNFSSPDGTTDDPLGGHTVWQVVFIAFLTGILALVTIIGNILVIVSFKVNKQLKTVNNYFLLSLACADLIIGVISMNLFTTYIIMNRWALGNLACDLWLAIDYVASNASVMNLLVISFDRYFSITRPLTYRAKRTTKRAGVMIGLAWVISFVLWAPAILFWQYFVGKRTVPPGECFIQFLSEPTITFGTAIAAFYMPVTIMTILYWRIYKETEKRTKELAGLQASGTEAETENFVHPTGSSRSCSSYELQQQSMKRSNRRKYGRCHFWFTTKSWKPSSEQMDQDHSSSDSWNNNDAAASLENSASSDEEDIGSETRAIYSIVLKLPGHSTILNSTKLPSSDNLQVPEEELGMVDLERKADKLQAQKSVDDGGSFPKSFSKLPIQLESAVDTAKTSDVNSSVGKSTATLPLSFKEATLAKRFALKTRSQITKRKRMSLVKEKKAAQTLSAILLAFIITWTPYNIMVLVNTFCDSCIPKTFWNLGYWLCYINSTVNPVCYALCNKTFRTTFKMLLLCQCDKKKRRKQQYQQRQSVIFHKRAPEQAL

Cc1nnc2sc(C(=O)NC3CN(c4ncc(C(F)(F)F)cn4)C3)c(N)c2c1C
%max [1]: 76%
Kp at 0.25 h [2]: 0.12
Emax [3]: 30%
EC50 [4]: 1160 nM
Activity [5]: inactive
fraction unbound [6]: 0.048
Activity [7]: inactive
EC50 [8]: 90 nM
Activity [9]: inactive
CLH [10]: 10.6 mL/min/kg
fraction unbound [11]: 0.41
fraction unbound [12]: 0.028
efflux ratio (P-gp): 4
CLH [13]: 4.39 mL/min/kg
Kp uu at 0.25 h [14]: 0.18

Cc1c(C(F)F)nnc2sc(C(=O)NC3CN(c4ncc(C(F)(F)F)cn4)C3)c(N)c12
%max [1]: 49%
Kp at 0.25 h [2]: 0.29
EC50 [4]: > 30000 nM
Activity [5]: inactive
fraction unbound [6]: 0.02
Activity [7]: inactive
EC50 [8]: 150 nM
Activity [9]: inactive
CLH [10]: 18.8 mL/min/kg
fraction unbound [11]: 0.062
fraction unbound [12]: 0.017
efflux ratio (P-gp): 3
CLH [13]: 10.1 mL/min/kg
Kp uu at 0.25 h [14]: 0.88

Reference: ChEMBL document CHEMBL4665653, “VU6005806/AZN-00016130, an advanced M positive allosteric modulator (PAM) profiled as a potential preclinical development candidate” (Bioorg Med Chem Lett, 2019)
